Laboratory results from ChEMBL document CHEMBL4665751, “Discovery of Clinical Candidate (5-(3-(4-Chlorophenoxy)prop-1-yn-1-yl)-3-hydroxypicolinoyl)glycine, an Orally Bioavailable Prolyl Hydroxylase Inhibitor for the Treatment of Anemia” (J Med Chem, 2020).
Active and inactive are the calls of the source. The calls are words filed in the database; no cut-off is given here.

Tests used:
[1] = Hepatotoxicity in male Sprague-Dawley rat assessed as change in albumin/globulin ratio at 15 to 200 mg/kg, po administered every alternate days for 2 weeks measured on day 14; assay type: toxicity, organism-based; conditions: in vivo, 336 h, dose 15-200 mg/kg, time 14 day
[2] = species on record: Homo sapiens; assay: Selectivity index, ratio of IC50 for human ERG expressed in HEK293 cells by PatchLiner assay to IC50 for PHD2 (unknown origin) by O-phenyl enediamine(OPD) based fluorescence assay; assay type: cell-based
[3] = Apparent volume of distribution in Beagle dog at 0.5 mg/kg, iv by LC-MS/MS analysis; assay type: ADME, organism-based, Canis lupus familiaris; conditions: in vivo, read-out: Vz
[4] = system: Mus musculus; assay: Antianemic activity in cisplatin-induced C57BL/6 mouse anemia model assessed as improvement in anemia at 25 mg/kg, po administered every other day for 1 month; assay type: functional; conditions: time 1 months, 730 h
[5] = Half-life in rat hepatocytes at 100 uM incubated up to 120 mins by LC-MS/MS analysis; assay type: ADME, cell-based, Hepatocyte
[6] = system: Mus musculus; assay: In vivo inhibition of PHD2 in C57BL/6 mouse assessed as upregulation of EPO plasma level by measuring EPO level at 15 mg/kg, po measured after 4 hrs by ELISA; assay type: functional, organism-based
[7] = target: Cytochrome P450 2D6 (Homo sapiens, UniProt P10635); assay: Inhibition of CYP2D6 (unknown origin) using dextromethorphan as substrate preincubated for 5 mins followed by addition of NADPH measured after 20 mins by LC-MS/MS analysis; assay type: ADME
Sequence of Cytochrome P450 2D6 (P10635 whole entry): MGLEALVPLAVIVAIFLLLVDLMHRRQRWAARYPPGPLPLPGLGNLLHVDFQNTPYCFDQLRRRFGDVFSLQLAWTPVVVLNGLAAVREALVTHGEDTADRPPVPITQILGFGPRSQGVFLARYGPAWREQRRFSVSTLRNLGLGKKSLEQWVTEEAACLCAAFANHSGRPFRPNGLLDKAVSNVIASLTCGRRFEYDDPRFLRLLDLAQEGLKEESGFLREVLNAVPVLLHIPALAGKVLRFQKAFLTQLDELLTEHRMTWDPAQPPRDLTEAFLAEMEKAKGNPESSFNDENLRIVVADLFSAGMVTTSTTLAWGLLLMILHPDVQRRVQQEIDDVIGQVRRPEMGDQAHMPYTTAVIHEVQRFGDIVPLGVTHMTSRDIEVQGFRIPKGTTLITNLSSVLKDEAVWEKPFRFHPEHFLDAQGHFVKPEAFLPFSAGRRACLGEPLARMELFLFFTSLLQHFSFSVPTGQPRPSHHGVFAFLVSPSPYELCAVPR

[8] = Acute toxicity in male Sprague-Dawley rat assessed as change in ratio of testis to body weight at 15 to 200 mg/kg, po administered every alternate days for 2 weeks measured on day 14; assay type: organism-based; conditions: in vivo, 336 h, dose 15-200 mg/kg, time 14 day
[9] = Tmax in Beagle dog at 2 mg/kg, ig by LC-MS/MS analysis; assay type: ADME, organism-based, Canis lupus familiaris; conditions: in vivo, po
[10] = Acute toxicity in female Sprague-Dawley rat assessed as change in ratio of ovary to body weight at 15 to 200 mg/kg, po administered every alternate days for 2 weeks measured on day 14; assay type: organism-based; conditions: in vivo, 336 h, dose 15-200 mg/kg, time 14 day
[11] = system: Mus musculus; assay: In vivo inhibition of PHD2 in po dosed C57BL/6 mouse assessed as upregulation of EPO plasma level administered 4 times for 3 days by ELISA; assay type: functional, organism-based; conditions: dose mg/kg 5-50, time 3.0 day
[12] = target: Cytochrome P450 2C9 (Homo sapiens, UniProt P11712); assay: Inhibition of CYP2C9 (unknown origin) using diclofenac as substrate preincubated for 5 mins followed by addition of NADPH measured after 20 mins by LC-MS/MS analysis; assay type: ADME
Sequence of Cytochrome P450 2C9 (P11712 whole entry): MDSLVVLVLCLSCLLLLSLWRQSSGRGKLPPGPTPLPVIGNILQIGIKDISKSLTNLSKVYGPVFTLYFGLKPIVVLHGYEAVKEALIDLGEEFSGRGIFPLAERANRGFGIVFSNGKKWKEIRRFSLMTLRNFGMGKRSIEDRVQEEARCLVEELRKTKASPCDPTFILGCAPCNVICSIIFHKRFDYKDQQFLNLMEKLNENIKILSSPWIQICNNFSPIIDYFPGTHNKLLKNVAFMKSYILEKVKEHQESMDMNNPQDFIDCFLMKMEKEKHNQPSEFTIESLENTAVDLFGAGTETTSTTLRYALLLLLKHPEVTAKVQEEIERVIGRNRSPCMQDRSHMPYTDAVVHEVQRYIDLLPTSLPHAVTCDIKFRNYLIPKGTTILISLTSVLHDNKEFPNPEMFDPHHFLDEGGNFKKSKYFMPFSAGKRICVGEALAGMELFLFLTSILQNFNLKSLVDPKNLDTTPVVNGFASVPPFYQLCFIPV

[13] = AUC (0 to t) in Beagle dog at 0.5 mg/kg, iv by LC-MS/MS analysis; assay type: ADME, organism-based, Canis lupus familiaris; set-up: dose 0.5 mg/kg; conditions: in vivo
[14] = MRT (0 to infinity) in Beagle dog at 2 mg/kg, ig by LC-MS/MS analysis; assay type: ADME, organism-based, Canis lupus familiaris; conditions: in vivo, po
[15] = system: Mus musculus; assay: Induction of erythropoiesis in po dosed C57BL/6 mouse assessed as increase in red blood cell count administered thrice for 3 days measured 4 hrs post last dose; assay type: functional, organism-based; conditions: dose mg/kg 5-50, time 72.0 hrs
[16] = Acute toxicity in male Sprague-Dawley rat assessed as change in ratio of epididymis to body weight at 15 to 200 mg/kg, po administered every alternate days for 2 weeks measured on day 14; assay type: organism-based; conditions: in vivo, 336 h, dose 15-200 mg/kg, time 14 day
[17] = Genotoxicity in Salmonella typhimurium TA100 at 62.5 to 1000 ug incubated for 48 to 50 hrs in presence of S9 fraction by Ames test; assay type: toxicity, subcellular, Salmonella enterica subsp. enterica serovar Typhimurium; conditions: dose 62.5-1000 µg, time 48-50 hrs
[18] = Oral bioavailability in Beagle dog at 2 mg/kg by LC-MS/MS analysis; assay type: ADME, organism-based, Canis lupus familiaris; conditions: in vivo
[19] = Half-life in mouse liver microsome at 1 uM preincubated for 5 mins followed by NADPH addition measured up to 120 mins by LC-MS/MS analysis; assay type: ADME; conditions: liver microsomes, time <=125 min
[20] = AUC (0 to infinity) in Sprague-Dawley rat at 1 mg/kg, iv by LC-MS/MS analysis; assay type: ADME, organism-based; set-up: time infinity, route intravenous, dose 1 mg/kg; conditions: in vivo
[21] = Genotoxicity in Salmonella typhimurium TA100 at 62.5 to 1000 ug incubated for 48 to 50 hrs in absence of S9 fraction by Ames test; assay type: toxicity, Salmonella enterica subsp. enterica serovar Typhimurium; conditions: in vivo; dose 62.5-1000 µg, time 48-50 hrs
[22] = target: Cytochrome P450 3A4 (Homo sapiens, UniProt P08684); assay: Inhibition of CYP3A4 (unknown origin) using midazolam as substrate preincubated for 5 mins followed by addition of NADPH measured after 20 mins by LC-MS/MS analysis; assay type: ADME
Sequence of Cytochrome P450 3A4 (P08684 whole entry): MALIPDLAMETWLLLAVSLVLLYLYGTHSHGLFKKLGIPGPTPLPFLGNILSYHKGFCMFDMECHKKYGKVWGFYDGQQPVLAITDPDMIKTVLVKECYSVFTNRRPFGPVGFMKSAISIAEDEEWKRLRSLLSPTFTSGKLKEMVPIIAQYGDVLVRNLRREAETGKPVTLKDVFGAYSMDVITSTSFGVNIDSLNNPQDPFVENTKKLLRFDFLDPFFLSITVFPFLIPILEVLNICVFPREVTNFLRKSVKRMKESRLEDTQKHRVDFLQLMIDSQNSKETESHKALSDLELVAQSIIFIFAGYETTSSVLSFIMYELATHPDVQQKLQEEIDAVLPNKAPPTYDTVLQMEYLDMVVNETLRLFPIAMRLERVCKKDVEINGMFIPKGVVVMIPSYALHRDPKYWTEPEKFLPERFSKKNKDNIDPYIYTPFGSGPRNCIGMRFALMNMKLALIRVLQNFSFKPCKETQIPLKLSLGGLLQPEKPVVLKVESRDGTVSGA

[23] = Apparent volume of distribution in Beagle dog at 2 mg/kg, ig by LC-MS/MS analysis; assay type: ADME, organism-based, Canis lupus familiaris; conditions: in vivo, po
[24] = Intrinsic clearance in mouse liver microsome at 1 uM preincubated for 5 mins followed by NADPH addition measured up to 120 mins by LC-MS/MS analysis; assay type: ADME; conditions: microsomes, 2 h, time <=125 min
[25] = species on record: Homo sapiens; assay: Selectivity index, ratio of IC50 for PHD1 (unknown origin) by O-phenyl enediamine(OPD) based fluorescence assay to IC50 for PHD2 (unknown origin) by O-phenyl enediamine(OPD) based fluorescence assay
[26] = Half-life in human L02 cells at 100 uM incubated up to 120 mins by LC-MS/MS analysis; assay type: ADME, cell-based
[27] = Half-life in Beagle dog at 2 mg/kg, ig by LC-MS/MS analysis; assay type: ADME, organism-based, Canis lupus familiaris; conditions: in vivo, po

With `O=C(O)CNC(=O)c1ncc(C#CCOc2ccc(Cl)cc2)cc1O` [DDO-3055] as the molecule, how does the Activity [1] read?
The Activity was “Non-Toxic”.

And the Ratio IC50 [2]?
Its Ratio IC50 is greater than 467.

What about the Vd [3] of the same molecule?
Its Vd is 3.34 L/kg.

What about the Activity [4] of the same molecule?
The Activity was 104.5%.

What about the half-life at 100 µM [5] of the same molecule?
Its half-life at 100 µM is 0.538 h.

What about the inhibition [6] of the same molecule?
Its inhibition is “Active”.

What about the IC50 [7] of the same molecule?
The IC50 was greater than 30 µM.

And the Activity [8]?
The Activity was “Non-Toxic”.

And the Tmax [9]?
The Tmax was 0.67 h.

And the Activity [10]?
Its Activity is “Non-Toxic”.

What about the inhibition [11] of the same molecule?
The inhibition was “Dose-dependent effect”.

What about the IC50 [12] of the same molecule?
The IC50 was greater than 30 µM.

And the AUC(0-t) [13]?
Its AUC(0-t) is 611 ng·h/mL.

And the MRT inf [14]?
The MRT inf was 4.69 h.

What about the Activity [15] of the same molecule?
The Activity was “Dose-dependent effect”.

What about the Activity [16] of the same molecule?
Its Activity is “Non-Toxic”.

And the Activity [17]?
Its Activity is “Non-Toxic”.

What about the bioavailability [18] of the same molecule?
Its bioavailability is 54%.

And the half-life at 1 µM [19]?
The half-life at 1 µM was greater than 2.32 h.

What about the AUC(0-inf) [20] of the same molecule?
The AUC(0-inf) was 4860 ng·h/mL.

What about the Activity [21] of the same molecule?
The Activity was “Non-Toxic”.

And the IC50 [22]?
The IC50 was greater than 30 µM.

What about the Vz [23] of the same molecule?
The Vz was 8.417 L/kg.

What about the CLH [24] of the same molecule?
Its CLH is less than 14.4 mL/day/kg.

What about the Ratio IC50 [25] of the same molecule?
The Ratio IC50 was 29.

And the half-life at 100 µM [26]?
The half-life at 100 µM was 17.7 h.

What about the half-life [27] of the same molecule?
Its half-life is 4.19 h.
